Assay results: PMC10054553, “Development of the First ^18F-Labeled Radiohybrid-Based Minigastrin Derivative with High Target Affinity and Tumor Accumulation by Substitution of the Chelating Moiety” (Pharmaceutics, 2023)
Like-named read-outs stand apart in the source and are kept apart here.

Columns and labels:
[1] = Biodistribution in AR42J tumor-bearing CB17-SCID mice; type: in vivo; conditions: mouse; for tissue to tissue ratio at 24 h: both sexes, CB17-SCID, total radioactivity; for tissue to tissue ratio at 24 h / tissue uptake at 24 h: 24 h p.i.; for tissue uptake at 1 h: 1 h p.i.
Procedure: (§1) All animal experiments were conducted in accordance with general animal welfare regulations in Germany (German animal protection act, in the edition of the announcement, dated 18 May 2006, as amended by Article 280 of 19 June 2020, approval no. ROB-55.2-1-2532.Vet_02-18-109 by the General Administration of Upper Bavaria) and the institutional guidelines for the care and use of animals. CB17-SCID mice of both genders and aged 2–12 months (Charles River Laboratories International Inc., Sulzfeld, Germany) were allowed to acclimate at the in-house animal facility for at least one week before inoculation was performed. Tumor xenografts were established as previously reported. Exclusion criteria for animals from an experiment were either weight loss higher than 20%, a tumor size above 1500 mm^3, an ulceration of the tumor, respiratory distress or a change of behavior. None of these criteria applied to any animal from the experiment. Neither randomization nor blinding was applied in the allocation of the experiments. Health status is SPF according to FELASA recommendation.
(§2) Biodistribution studies (n = 4) and µSPECT/CT as well as µPET/CT imaging (using a MILabs VECTor^4 small-animal SPECT/PET/OI/CT device, MILabs, Utrecht, The Netherlands) at 1 and 24 h p.i. were carried out as previously published. For all ^177Lu-labeled compounds, approximately 2–3 MBq (100 pmol)—and for the ^18F-labeled analog, approximately 7 MBq (100 pmol)—were administered. For all competition studies, 2.90 mg/kg (40 nmol) of [^natLu]Lu-DOTA-MGS5 (10^−3 M in phosphate-buffered saline) were co-administered.

[2] = tested on: AR42J tumor-bearing CB17-SCID mice; test: as above; type: in vivo; conditions: 24 h p.i.
Procedure: as §1, §2

[3] = adrenal, 100 pmol, 100 pmol, n = 4, read-out: Adrenal activity
[4] = blood, 100 pmol, 100 pmol, n = 4, read-out: Blood activity
[5] = bone, 100 pmol, 100 pmol, n = 4, read-out: Bone activity
[6] = heart, 100 pmol, 100 pmol, n = 4, read-out: Heart activity
[7] = intestine, 100 pmol, 100 pmol, n = 4, read-out: Intestine activity
[8] = liver, 100 pmol, 100 pmol, n = 4, read-out: Liver activity
[9] = lung, 100 pmol, 100 pmol, n = 4, read-out: Lung activity
[10] = muscle, 100 pmol, 100 pmol, n = 4, read-out: Muscle activity
[11] = 100 pmol co-injected with DOTA-MGS5 (40 nmol), n = 2

## CCCC[C@H](NC(=O)[C@H](Cc1c[nH]c2ccccc12)NC(=O)CNC(=O)[C@H](Cc1ccc(O)cc1)NC(=O)[C@H](C)NC(=O)CC[C@@H](NC(=O)CC[C@@H](NC(=O)CC[C@@H](NC(=O)CC[C@@H](NC(=O)CC[C@@H](NC(=O)CC[C@@H](NC(=O)CC[C@@H](NC(=O)CC[C@@H](NC(=O)[C@@H](CNC(=O)c1ccc([Si](F)(C(C)(C)C)C(C)(C)C)cc1)NC(=O)CN1CCN(CC(=O)O)CCN(CC(=O)O)CCN(CC(=O)O)CC1)C(=O)O)C(=O)O)C(=O)O)C(=O)O)C(=O)O)C(=O)O)C(=O)O)C(=O)O)C(=O)N[C@@H](CC(=O)O)C(=O)N[C@@H](Cc1ccccc1)C(N)=O [[^19F]F-[^177Lu]Lu-DOTA-rhCCK-18, metal not drawn]
[1]; tumor / adrenal, 100 pmol, n = 4, read-out: Tumor-to-background ratio, Adrenal
  tissue to tissue ratio at 24 h: 73.3 ± 13.4
[1]; tumor / blood, 100 pmol, n = 4, read-out: Tumor-to-background ratio, Blood
  tissue to tissue ratio at 24 h: 1630 ± 823
[1]; tumor / bone, 100 pmol, n = 4, read-out: Tumor-to-background ratio, Bone
  tissue to tissue ratio at 24 h: 151 ± 48
[1]; tumor / heart, 100 pmol, n = 4, read-out: Tumor-to-background ratio, Heart
  tissue to tissue ratio at 24 h: 312 ± 58
[1]; tumor / intestine, 100 pmol, n = 4, read-out: Tumor-to-background ratio, Intestine
  tissue to tissue ratio at 24 h: 124 ± 30
[1]; tumor / kidney, 100 pmol, n = 4, read-out: Tumor-to-background ratio, Kidney
  tissue to tissue ratio at 24 h: 0.19 ± 0.01
[1]; tumor / liver, 100 pmol, n = 4, read-out: Tumor-to-background ratio, Liver
  tissue to tissue ratio at 24 h: 48.1 ± 6.7
[1]; tumor / lung, 100 pmol, n = 4, read-out: Tumor-to-background ratio, Lung
  tissue to tissue ratio at 24 h: 236 ± 118
[1]; tumor / muscle, 100 pmol, n = 4, read-out: Tumor-to-background ratio, Muscle
  tissue to tissue ratio at 24 h: 650 ± 542
[1]; tumor / pancreas, 100 pmol, n = 4, read-out: Tumor-to-background ratio, Pancreas
  tissue to tissue ratio at 24 h: 78.8 ± 17.5
[1]; tumor / spleen, 100 pmol, n = 4, read-out: Tumor-to-background ratio, Spleen
  tissue to tissue ratio at 24 h: 115 ± 15
[1]; tumor / stomach, 100 pmol, n = 4, read-out: Tumor-to-background ratio, Stomach
  tissue to tissue ratio at 24 h: 6.58 ± 2.77
[1]; [3]
  tissue uptake at 1 h: 0.52 ± 0.07 %ID/g
  tissue uptake at 24 h: 0.37 ± 0.12 %ID/g
[1]; adrenal, 100 pmol co-injected with DOTA-MGS5 (40 nmol), n = 2, read-out: Adrenal activity, competition studies
  tissue uptake at 24 h: 5.02 ± 4.64 %ID/g
[1]; [4]
  tissue uptake at 1 h: 2.56 ± 0.6 %ID/g
  tissue uptake at 24 h: 0.02 ± 0.01 %ID/g
[1]; blood, 100 pmol co-injected with DOTA-MGS5 (40 nmol), n = 2, read-out: Blood activity, competition studies
  tissue uptake at 24 h: 0.02 %ID/g
[1]; blood, heart and lung, 100 pmol, span over the three organs, read-out: Blood, heart and lung levels
  tissue uptake at 1 h: 0.9 to 2.6 %ID/g
[1]; blood, heart and lung, 100 pmol, the three organs, read-out: Blood, heart and lung levels
  tissue uptake at 24 h: < 0.2 %ID/g
[1]; [5]
  tissue uptake at 1 h: 0.48 ± 0.02 %ID/g
  tissue uptake at 24 h: 0.18 ± 0.03 %ID/g
[1]; [6]
  tissue uptake at 1 h: 0.94 ± 0.02 %ID/g
  tissue uptake at 24 h: 0.08 ± 0.02 %ID/g
[1]; heart, 100 pmol co-injected with DOTA-MGS5 (40 nmol), n = 2, read-out: Heart activity, competition studies
  tissue uptake at 24 h: 0.08 ± 0.01 %ID/g
[1]; [7]
  tissue uptake at 1 h: 0.61 ± 0.11 %ID/g
  tissue uptake at 24 h: 0.21 ± 0.02 %ID/g
[1]; intestine, 100 pmol co-injected with DOTA-MGS5 (40 nmol), n = 2, read-out: Intestine activity, competition studies
  tissue uptake at 24 h: 0.17 ± 0.06 %ID/g
[1]; kidney, 100 pmol, 100 pmol, n = 4, read-out: Kidney activity
  tissue uptake at 1 h: 97.2 ± 14 %ID/g
[1]; kidney, 100 pmol co-injected with DOTA-MGS5 (40 nmol), n = 2, read-out: Kidney activity, competition studies
  tissue uptake at 24 h: 193 ± 15 %ID/g
[1]; [8]
  tissue uptake at 1 h: 1.15 ± 0.18 %ID/g
  tissue uptake at 24 h: 0.53 ± 0.07 %ID/g
[1]; liver, 100 pmol co-injected with DOTA-MGS5 (40 nmol), n = 2, read-out: Liver activity, competition studies
  tissue uptake at 24 h: 1.51 ± 0.02 %ID/g
[1]; [9]
  tissue uptake at 1 h: 2.05 ± 0.2 %ID/g
  tissue uptake at 24 h: 0.18 ± 0.15 %ID/g
[1]; lung, 100 pmol co-injected with DOTA-MGS5 (40 nmol), n = 2, read-out: Lung activity, competition studies
  tissue uptake at 24 h: 0.76 ± 0.17 %ID/g
[1]; [10]
  tissue uptake at 1 h: 0.38 ± 0.03 %ID/g
  tissue uptake at 24 h: 0.08 ± 0.06 %ID/g
[1]; muscle, 100 pmol co-injected with DOTA-MGS5 (40 nmol), n = 2, read-out: Muscle activity, competition studies
  tissue uptake at 24 h: 0.07 ± 0.04 %ID/g
[1]; pancreas, 100 pmol, 100 pmol, n = 4, read-out: Pancreas activity
  tissue uptake at 1 h: 1.22 ± 0.21 %ID/g
[1]; spleen, 100 pmol, 100 pmol, n = 4, read-out: Spleen activity
  tissue uptake at 1 h: 0.6 ± 0.08 %ID/g
[1]; spleen, 100 pmol co-injected with DOTA-MGS5 (40 nmol), n = 2, read-out: Spleen activity, competition studies
  tissue uptake at 24 h: 0.95 ± 0.14 %ID/g
[1]; stomach, 100 pmol, 100 pmol, n = 4, read-out: Stomach activity
  tissue uptake at 1 h: 4.25 ± 0.45 %ID/g
[1]; tumor, 100 pmol, 100 pmol, n = 4, AR42J tumor, read-out: Tumor activity
  tissue uptake at 1 h: 24.1 ± 4.2 %ID/g
[1]; tumor, 100 pmol co-injected with DOTA-MGS5 (40 nmol), n = 2, read-out: Tumor activity, competition studies
  tissue uptake at 24 h: 1.75 ± 0.26 %ID/g

## CCCC[C@H](NC(=O)[C@H](Cc1c[nH]c2ccccc12)NC(=O)CNC(=O)[C@H](Cc1ccc(O)cc1)NC(=O)[C@H](C)NC(=O)CC[C@@H](NC(=O)CC[C@@H](NC(=O)CC[C@@H](NC(=O)CC[C@@H](NC(=O)CC[C@@H](NC(=O)CC[C@@H](NC(=O)CC[C@@H](NC(=O)CC[C@@H](NC(=O)[C@@H](CNC(=O)c1ccc([Si](F)(C(C)(C)C)C(C)(C)C)cc1)NC(=O)CN1CCN(CC(=O)O)CCN(CC(=O)O)CCN(CC(=O)O)CC1)C(=O)O)C(=O)O)C(=O)O)C(=O)O)C(=O)O)C(=O)O)C(=O)O)C(=O)O)C(=O)N[C@@H](CC(=O)O)C(=O)N[C@@H](Cc1ccccc1)C(N)=O [[^19F]F-[^177Lu]Lu-DOTA-rhCCK-18] [metal not drawn]
[2]
  fold enhanced kidney values compared to [177Lu]Lu-DOTA-PP-F11N: 40 fold
  fold higher tumor uptake compared to [177Lu]Lu-DOTA-PP-F11N: 13 fold
[2]; [11]
  Pancreas activity, competition studies: 0.22 ± 0.02 %ID/g
  Stomach activity, competition studies: < 2 %ID/g
  Tumor activity, competition studies: < 2 %ID/g
[2]; 100 pmol, n = 4
  Kidney activity: 134 ± 18 %ID/g
  Pancreas activity: 0.34 ± 0.09 %ID/g
  Stomach activity: 4.28 ± 1.05 %ID/g
[2]; 100 pmol, n = 4, AR42J tumor
  Tumor activity: 25.4 ± 4.7 %ID/g
[2]; b47: versus [177Lu]Lu-(R)-DOTAGA-rhCCK-16
  fold higher tumor uptake compared to (R)-DOTAGA derivative: 1.5 fold
